From ChEMBL document CHEMBL1641363, “Fragment-based discovery of 6-substituted isoquinolin-1-amine based ROCK-I inhibitors” (Bioorg Med Chem Lett, 2011)
pKi: −log10 of the molar value.

What was measured:
[1] = molecular target: Voltage-gated inwardly rectifying potassium channel KCNH2 (Homo sapiens, UniProt Q12809); assay: Displacement of [3H]dofetilide from human ERG
[2] = Half life in rat liver microsome; format: ADME; conditions: liver microsomes
[3] = Half life in mouse liver microsome; format: ADME; conditions: liver microsomes
[4] = Half life in rat hepatocyte; format: ADME, cell-based, Liver; conditions: hepatocytes
[5] = Permeability from apical to basolateral side of human Caco2 cells; format: ADME, cell-based; conditions: Caco-2, read-out: permeability
[6] = Permeability from basolateral to apical side of human Caco2 cells; format: ADME, cell-based; conditions: Caco-2, read-out: permeability
[7] = Oral bioavailability in C57 mouse; format: ADME, organism-based; conditions: in vivo
[8] = Plasma clearance in C57 mouse; format: ADME, organism-based
[9] = Volume of distribution at steady state in C57 mouse; format: ADME, organism-based; conditions: in vivo, read-out: Vdss
[10] = molecular target: T1, Ephrin type-A receptor 8 (Homo sapiens) (UniProt P29322); conditions: 10 uM
T1 sequence (whole entry): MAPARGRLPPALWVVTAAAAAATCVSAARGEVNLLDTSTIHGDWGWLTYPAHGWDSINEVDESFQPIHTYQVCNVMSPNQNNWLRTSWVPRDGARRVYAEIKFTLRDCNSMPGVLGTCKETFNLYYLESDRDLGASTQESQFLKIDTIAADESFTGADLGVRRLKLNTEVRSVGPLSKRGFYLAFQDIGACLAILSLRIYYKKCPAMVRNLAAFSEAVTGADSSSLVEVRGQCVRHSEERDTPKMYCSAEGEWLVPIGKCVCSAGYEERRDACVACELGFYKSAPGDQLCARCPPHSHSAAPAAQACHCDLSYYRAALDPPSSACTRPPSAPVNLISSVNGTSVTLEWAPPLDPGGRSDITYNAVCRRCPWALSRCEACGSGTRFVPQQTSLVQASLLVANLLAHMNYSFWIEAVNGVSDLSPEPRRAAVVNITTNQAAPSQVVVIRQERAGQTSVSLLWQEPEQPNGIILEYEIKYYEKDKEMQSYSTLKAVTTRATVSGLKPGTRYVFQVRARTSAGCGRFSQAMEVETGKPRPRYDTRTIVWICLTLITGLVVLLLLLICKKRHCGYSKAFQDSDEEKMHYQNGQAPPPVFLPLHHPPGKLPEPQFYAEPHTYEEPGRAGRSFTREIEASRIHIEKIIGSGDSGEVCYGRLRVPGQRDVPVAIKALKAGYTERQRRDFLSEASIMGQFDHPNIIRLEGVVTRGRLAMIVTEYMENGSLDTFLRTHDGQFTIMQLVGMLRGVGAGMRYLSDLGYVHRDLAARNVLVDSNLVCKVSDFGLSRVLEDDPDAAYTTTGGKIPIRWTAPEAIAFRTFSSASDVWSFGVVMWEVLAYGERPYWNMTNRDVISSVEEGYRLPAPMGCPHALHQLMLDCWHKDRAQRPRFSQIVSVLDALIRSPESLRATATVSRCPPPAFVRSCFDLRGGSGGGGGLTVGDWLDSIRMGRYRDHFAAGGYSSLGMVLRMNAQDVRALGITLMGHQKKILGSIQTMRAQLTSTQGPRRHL
Description: Inhibition of EPHA8 at 10 uM

[11] = molecular target: Tyrosine-protein kinase Fes/Fps (Homo sapiens) (UniProt P07332); conditions: 10 uM
Description: Inhibition of FES at 10 uM

[12] = molecular target: Platelet-derived growth factor receptor alpha (Homo sapiens) (UniProt P16234); conditions: 10 uM
Description: Inhibition of PDGFRA at 10 uM

[13] = molecular target: T2, cAMP-dependent protein kinase catalytic subunit PRKX (Homo sapiens) (UniProt P51817); conditions: 10 uM
T2 sequence (whole entry): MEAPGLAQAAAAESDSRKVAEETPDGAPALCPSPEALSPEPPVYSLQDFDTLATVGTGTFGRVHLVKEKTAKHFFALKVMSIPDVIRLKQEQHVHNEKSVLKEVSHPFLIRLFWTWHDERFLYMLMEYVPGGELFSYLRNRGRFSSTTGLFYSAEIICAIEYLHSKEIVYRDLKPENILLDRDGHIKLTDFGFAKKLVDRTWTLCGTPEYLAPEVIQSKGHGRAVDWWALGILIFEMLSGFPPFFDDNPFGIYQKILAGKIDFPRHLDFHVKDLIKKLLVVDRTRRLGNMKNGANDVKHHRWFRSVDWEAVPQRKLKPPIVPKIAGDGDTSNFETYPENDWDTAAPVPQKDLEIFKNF
Description: Inhibition of PRKX at 10 uM

[14] = molecular target: Proto-oncogene tyrosine-protein kinase receptor Ret (Homo sapiens) (UniProt P07949); conditions: 10 uM
Description: Inhibition of RET at 10 uM

[15] = molecular target: Rho-associated protein kinase 2 (Homo sapiens, UniProt O75116); conditions: 10 uM
Description: Inhibition of ROCK2 at 10 uM

[16] = molecular target: Serine/threonine-protein kinase SIK2 (Homo sapiens) (UniProt Q9H0K1); conditions: 10 uM
Description: Inhibition of SNFILK2 at 10 uM

[17] = molecular target: Angiopoietin-1 receptor (Homo sapiens) (UniProt Q02763); conditions: 10 uM
Chain of Angiopoietin-1 receptor (Homo sapiens) (Q02763 whole entry): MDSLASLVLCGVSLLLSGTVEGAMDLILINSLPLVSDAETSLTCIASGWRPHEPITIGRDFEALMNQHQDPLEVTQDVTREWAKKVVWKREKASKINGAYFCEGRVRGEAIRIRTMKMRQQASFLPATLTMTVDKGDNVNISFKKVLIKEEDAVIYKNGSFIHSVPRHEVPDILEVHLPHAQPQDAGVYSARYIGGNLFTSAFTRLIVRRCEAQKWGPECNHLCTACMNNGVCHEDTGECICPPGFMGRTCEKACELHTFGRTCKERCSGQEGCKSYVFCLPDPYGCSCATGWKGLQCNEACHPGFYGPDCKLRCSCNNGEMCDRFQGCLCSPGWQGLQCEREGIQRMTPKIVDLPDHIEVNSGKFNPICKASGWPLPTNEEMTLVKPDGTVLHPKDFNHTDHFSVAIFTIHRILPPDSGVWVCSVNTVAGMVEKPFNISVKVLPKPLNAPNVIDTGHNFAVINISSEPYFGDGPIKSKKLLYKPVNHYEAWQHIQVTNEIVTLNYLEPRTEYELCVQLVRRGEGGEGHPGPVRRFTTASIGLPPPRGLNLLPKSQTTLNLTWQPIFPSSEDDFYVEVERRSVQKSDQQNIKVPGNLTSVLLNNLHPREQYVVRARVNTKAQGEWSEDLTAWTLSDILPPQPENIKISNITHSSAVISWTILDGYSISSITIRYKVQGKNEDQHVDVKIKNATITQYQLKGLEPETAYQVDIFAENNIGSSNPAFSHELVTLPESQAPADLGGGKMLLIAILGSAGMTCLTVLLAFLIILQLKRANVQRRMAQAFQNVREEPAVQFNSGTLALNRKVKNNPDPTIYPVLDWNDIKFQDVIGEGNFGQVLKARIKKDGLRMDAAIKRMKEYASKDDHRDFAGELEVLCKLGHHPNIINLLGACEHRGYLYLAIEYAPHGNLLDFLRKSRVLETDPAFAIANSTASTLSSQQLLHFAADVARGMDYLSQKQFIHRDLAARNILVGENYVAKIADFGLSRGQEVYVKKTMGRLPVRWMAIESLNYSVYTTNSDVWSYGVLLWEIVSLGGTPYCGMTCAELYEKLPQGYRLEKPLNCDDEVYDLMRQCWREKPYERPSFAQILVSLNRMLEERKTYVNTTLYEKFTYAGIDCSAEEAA
Description: Inhibition of Tie2 at 10 uM

Chain of Voltage-gated inwardly rectifying potassium channel KCNH2 (Q12809 whole entry): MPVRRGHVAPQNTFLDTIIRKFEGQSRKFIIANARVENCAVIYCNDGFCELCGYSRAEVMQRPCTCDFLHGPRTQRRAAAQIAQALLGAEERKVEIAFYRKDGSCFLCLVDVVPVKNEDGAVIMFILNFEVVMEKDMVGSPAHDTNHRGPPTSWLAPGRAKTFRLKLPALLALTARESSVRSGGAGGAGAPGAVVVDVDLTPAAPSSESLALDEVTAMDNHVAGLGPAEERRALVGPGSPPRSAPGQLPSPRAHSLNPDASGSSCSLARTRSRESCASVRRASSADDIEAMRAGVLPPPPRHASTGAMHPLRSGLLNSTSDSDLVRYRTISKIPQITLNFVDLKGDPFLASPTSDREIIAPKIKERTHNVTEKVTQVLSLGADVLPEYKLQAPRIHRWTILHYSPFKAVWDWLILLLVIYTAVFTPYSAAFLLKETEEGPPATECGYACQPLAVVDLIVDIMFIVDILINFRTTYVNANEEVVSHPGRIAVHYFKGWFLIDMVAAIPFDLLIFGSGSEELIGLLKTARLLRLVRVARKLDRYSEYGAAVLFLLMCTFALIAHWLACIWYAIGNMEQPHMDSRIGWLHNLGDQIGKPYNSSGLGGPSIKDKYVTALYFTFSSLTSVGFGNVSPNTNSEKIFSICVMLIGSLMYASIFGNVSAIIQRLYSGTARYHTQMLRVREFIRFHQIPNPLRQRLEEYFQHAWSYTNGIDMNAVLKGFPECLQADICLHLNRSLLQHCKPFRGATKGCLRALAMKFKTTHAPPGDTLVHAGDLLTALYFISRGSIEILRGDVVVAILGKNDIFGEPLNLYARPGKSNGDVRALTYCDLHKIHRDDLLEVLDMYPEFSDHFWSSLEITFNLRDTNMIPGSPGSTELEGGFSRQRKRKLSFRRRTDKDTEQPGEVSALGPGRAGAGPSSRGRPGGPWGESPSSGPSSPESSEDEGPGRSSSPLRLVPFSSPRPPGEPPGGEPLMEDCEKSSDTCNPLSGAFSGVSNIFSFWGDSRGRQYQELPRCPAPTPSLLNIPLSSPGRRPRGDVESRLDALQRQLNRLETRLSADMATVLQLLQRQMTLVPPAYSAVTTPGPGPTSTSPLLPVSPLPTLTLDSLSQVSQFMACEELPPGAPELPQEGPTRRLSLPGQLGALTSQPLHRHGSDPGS
Chain of Serine/threonine-protein kinase SIK2 (Homo sapiens) (Q9H0K1 whole entry, looked up): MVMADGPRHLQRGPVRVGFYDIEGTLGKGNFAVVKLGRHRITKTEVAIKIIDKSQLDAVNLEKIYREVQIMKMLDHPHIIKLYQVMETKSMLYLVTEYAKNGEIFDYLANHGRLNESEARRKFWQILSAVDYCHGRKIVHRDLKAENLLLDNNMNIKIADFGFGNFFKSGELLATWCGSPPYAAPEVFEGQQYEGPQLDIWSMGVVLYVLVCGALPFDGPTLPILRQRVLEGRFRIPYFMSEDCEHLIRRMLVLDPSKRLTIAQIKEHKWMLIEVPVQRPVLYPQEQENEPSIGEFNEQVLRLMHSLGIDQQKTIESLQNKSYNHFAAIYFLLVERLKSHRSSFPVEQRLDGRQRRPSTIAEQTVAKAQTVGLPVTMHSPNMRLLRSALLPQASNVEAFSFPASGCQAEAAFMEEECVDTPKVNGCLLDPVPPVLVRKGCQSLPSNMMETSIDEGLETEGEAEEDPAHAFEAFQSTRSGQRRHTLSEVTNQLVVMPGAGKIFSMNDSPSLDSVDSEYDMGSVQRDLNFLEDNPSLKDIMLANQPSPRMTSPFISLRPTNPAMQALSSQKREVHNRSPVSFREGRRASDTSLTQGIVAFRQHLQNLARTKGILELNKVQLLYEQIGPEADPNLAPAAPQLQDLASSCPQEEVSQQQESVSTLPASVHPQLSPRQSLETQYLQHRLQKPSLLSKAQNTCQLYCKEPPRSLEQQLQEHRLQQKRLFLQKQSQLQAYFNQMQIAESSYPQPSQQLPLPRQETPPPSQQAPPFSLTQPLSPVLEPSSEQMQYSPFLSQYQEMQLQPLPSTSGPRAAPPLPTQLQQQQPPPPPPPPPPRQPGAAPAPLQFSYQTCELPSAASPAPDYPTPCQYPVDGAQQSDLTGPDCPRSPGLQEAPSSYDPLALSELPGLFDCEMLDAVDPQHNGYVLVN
Chain of Platelet-derived growth factor receptor alpha (Homo sapiens) (P16234 whole entry): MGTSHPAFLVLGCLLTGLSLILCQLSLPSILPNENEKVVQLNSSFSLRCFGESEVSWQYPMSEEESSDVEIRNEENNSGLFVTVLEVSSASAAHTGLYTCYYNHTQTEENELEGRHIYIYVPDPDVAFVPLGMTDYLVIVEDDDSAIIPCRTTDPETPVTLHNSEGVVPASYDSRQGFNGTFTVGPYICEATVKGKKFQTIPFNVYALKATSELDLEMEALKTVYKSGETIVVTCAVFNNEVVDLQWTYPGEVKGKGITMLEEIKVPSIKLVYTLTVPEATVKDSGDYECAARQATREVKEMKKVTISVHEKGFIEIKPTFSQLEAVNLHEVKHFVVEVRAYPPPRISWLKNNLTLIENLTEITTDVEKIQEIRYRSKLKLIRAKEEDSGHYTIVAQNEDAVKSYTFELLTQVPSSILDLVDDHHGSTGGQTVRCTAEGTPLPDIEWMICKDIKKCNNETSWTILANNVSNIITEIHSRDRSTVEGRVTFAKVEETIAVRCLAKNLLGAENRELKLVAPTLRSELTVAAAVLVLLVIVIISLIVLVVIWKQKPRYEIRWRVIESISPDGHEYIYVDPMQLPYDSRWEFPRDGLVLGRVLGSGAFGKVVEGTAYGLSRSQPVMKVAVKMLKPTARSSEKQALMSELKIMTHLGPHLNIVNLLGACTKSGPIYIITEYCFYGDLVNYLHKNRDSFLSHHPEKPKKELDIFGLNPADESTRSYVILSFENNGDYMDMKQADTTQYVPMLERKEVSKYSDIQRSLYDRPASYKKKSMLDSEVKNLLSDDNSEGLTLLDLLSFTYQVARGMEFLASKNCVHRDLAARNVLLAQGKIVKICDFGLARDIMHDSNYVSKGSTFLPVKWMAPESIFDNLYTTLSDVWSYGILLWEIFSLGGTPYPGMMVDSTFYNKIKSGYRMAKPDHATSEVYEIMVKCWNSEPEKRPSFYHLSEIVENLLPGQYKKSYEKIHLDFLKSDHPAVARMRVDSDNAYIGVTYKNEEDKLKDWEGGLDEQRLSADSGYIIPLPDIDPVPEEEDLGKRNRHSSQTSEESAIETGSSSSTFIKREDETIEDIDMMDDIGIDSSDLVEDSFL
Chain of Tyrosine-protein kinase Fes/Fps (Homo sapiens) (P07332 whole entry): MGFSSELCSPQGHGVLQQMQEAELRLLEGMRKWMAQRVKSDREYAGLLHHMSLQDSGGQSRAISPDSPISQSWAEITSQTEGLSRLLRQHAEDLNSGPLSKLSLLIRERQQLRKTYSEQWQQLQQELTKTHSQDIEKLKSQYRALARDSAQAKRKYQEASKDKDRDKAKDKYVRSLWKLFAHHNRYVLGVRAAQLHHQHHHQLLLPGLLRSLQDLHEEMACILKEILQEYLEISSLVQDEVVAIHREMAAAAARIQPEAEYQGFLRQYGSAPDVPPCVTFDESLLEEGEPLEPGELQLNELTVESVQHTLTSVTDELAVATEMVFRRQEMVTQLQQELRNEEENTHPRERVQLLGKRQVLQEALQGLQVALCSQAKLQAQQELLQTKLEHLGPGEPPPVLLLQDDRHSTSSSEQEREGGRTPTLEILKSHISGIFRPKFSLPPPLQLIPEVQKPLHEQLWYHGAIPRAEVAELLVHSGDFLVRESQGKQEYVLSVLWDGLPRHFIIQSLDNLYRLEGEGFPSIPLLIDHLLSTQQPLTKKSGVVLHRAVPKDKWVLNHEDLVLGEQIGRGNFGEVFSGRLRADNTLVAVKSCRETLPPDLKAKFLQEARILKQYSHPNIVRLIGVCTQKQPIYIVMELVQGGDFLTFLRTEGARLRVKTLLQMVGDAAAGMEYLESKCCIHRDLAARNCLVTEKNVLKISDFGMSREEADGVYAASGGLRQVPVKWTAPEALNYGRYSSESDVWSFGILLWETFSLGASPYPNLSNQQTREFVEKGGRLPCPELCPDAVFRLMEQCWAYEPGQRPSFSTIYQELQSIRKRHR

half-life [2]: > 2 h
half-life [3]: > 2 h
half-life [4]: 1.17 h
Papp A→B [5]: 6.3 ×10⁻⁶ cm/s
Papp B→A [6]: 3.6 ×10⁻⁶ cm/s
bioavailability [7]: > 75%
clearance [8]: 9.5 mL/min/kg
Vd [9]: 11 L/kg
inhibition [10]: > 80%
inhibition [11]: > 80%
inhibition [12]: > 80%
inhibition [13]: > 80%
inhibition [14]: > 80%
inhibition [15]: > 80%
inhibition [16]: > 80%
inhibition [17]: > 80%
SMILES: Nc1nccc2cc(O[C@H]3CCCNC3)ccc12
pKi [1]: 4.70
